Assays:
DNA = experiment: Ethidium bromide fluorescence test of DNA compaction and release at pH 5; format: physicochemical; conditions: for variation in fluorescence over time (DNA not completely compacted): 0.4 nmol lipid/μg of DNA
From the text: This can be easily shown by a fluorescence test with ethidium bromide (EtBr): the absence of fluorescence reflects the absence of free DNA, which means that the DNA is compacted.
In the text which follows, the two forms Syn and Trans of the acid-sensitive compound A as prepared in example 3 were used and the non-acid-sensitive analog described in the publication WO 97/18185, and which has the formula: H2N—(CH2)3—NH—(CH2)4—NH—(CH2)3—NH—CH2—CO-Gly-N[(CH2)17—CH3]2 was used as control. This non-acid-sensitive analog is called in the text which follows “control cationic lipid”.
The DNA is brought into contact with increasing quantities of control cationic lipid or of acid-sensitive compound A Syn or Trans, by mixing an equal volume of lipid solutions of different titers with the DNA solutions. Samples of 800 μl of DNA complexes having a concentration of 10 μg/ml are thus prepared in a sodium chloride solution at 150 mM with increasing quantities of control cationic lipid or of acid-sensitive compound A Syn or Trans.
At time t=0, 200 μl of buffer having a concentration of 0.1 mol/l at pH 5 are added to these samples and the samples are stored in an oven at 37° C. The fluorescence with ethidium bromide (EtBr) is measured over time (measurement at 20° C.) using a FluoroMax-2 (Jobin Yvon-Spex), with excitation and emission wavelengths of 260 nm and 590 nm respectively. The slit widths for excitation and for emission are set at 5 nm. The fluorescence value is recorded after addition of 3 μl of ethidium bromide at 1 g/l per ml of DNA/cationic lipid or DNA/acid-sensitive compound solution (at 0.01 mg of DNA/ml).

HeLa cells = experiment: In vitro transfection of HeLa cells, luciferase activity; format: cell-based, human; conditions: for transfection activity: 1.0 to 10.0 nmol of lipid/μg of DNA; for effect of the presence of serum on transfection: with serum (10% FCS)
Description: This study was carried out at 4 different charge ratios: 1.0 or 4.0 or 6.0 or 10.0 nmol of lipid/μg of DNA. Each of these conditions was tested with and without fetal calf serum (“+ or − Serum”)
Culture of the cells: HeLa cells (American type Culture Collection (ATCC) Rockville, Md., USA) derived from a human cervical epithelium carcinoma, are cultured in the presence of a medium of the MEM (“minimum essential medium”) type with addition of 2 mM L-glutamine, 50 units/ml of penicillin, and 50 units/ml of streptomycin. The medium and the additives are obtained from Gibco/BRL life Technologies (Gaithersburg, Md., USA). The cells are cultured in flasks at 37° C. and at 5% carbon dioxide in an incubator.
Transfection: a day before the transfection, the HeLa cells are transferred into 24-well plates with a cell number of 30,000 to 50,000 per well. These dilutions represent approximately 80% confluence after 24 hours.
For the transfection, the cells are washed twice and incubated at 37° C. with 500 μl of medium with serum (10% FCS v/v) or without serum.
50 μl of complexes containing 0.5 μg of plasmid DNA are added to each well (the complexes are prepared at least 30 minutes before the addition to the well). After two hours at 37° C., the plates without serum are supplemented with 10% (v/v) of FCS (“Fetal Calf Serum”).
All the plates are placed for 36 hours at 37° C. and at 5% carbon dioxide.
Determination of the luciferase activity: Briefly, the transfected cells are washed twice with 500 μl of PBS (phosphate buffer) and then lysed with 250 μl of reagent (Promega cell culture lysis reagent, from the Luciferase Assay System kit).
An aliquot of 10 μl of supernatant of the lysate centrifuged (12,000×g) for 5 minutes at 4° C. is measured with the Wallac Victor2 luminometer (1420 Multilabel couter).
The luciferase activity is assayed by the emission of light in the presence of luciferin, of coenzyme A and of ATP for 10 seconds and expressed relative to 2000 treated cells. The luciferase activity is thus expressed as Relative Light Unit (“RLU”: “Relative light unit”) and normalized with the concentration of proteins in the sample obtained using a Pierce BCA kit (Rockford, Ill., USA).

[1] = tested on: control cationic lipid/DNA particles; experiment: Colloidal stabilization of DNA/control cationic lipid particles, hydrodynamic diameter; format: physicochemical; conditions: as nonionic surfactant for nucleolipid particles
From the text: In the present example, the cationic lipid used is that already used in examples 7 and 8 and described in the publication WO 97/18185 under the formula: H2N—(CH2)3—NH—(CH2)4—NH—(CH2)3—NH—CH2—CO-Gly-N[(CH2)17—CH3]2 (control cationic lipid).
Compounds C and D prepared in example 5 are used as acid-sensitive pegoylated lipids. As controls, there are used BRIJ 700 (SIGMA) and the pegoylated lipid of formula: [drawing 27] which are non-acid-sensitive analogs of compounds C and D, respectively, and which are known as nonionic surfactants (see for example the publication WO 98/34648). The two controls are used at 10 g/l in water.
(§1) All these samples have a control cationic lipid/DNA ratio of 1.5 (in nmol of lipid per μg of DNA) and contain increasing quantities of pegoylated lipid (expressed as polymer/DNA weight/weight ratio).
The measurement of the hydrodynamic diameter is made with a Coulter N4Plus apparatus using plastic cuvettes (four transparent sides) filled with 800 μl of the different solutions containing 0.01 mg of DNA/ml, the measurement being carried out at 90° in unimodal mode.

[2] = tested on: DNA/control cationic lipid nucleolipid complexes; experiment: Size of nucleolipid particles as a function of pH and time (stability of acid-sensitive compounds); format: physicochemical; conditions: for sensitivity at acidic pH values: pH 4, pH 5, pH 6; for stability at physiological pH: pH 7.4
Description: To this effect, the variation of the size of nucleolipid complexes (identical to those used in examples 9 and 10) is measured as a function of the pH and time, for various acid-sensitive pegoylated lipids, which makes it possible to cover different ranges of sensitivity.

[3] = tested on: control cationic lipid/DNA nucleolipid particles; experiment: Size of nucleolipid particles as a function of time at pH 5; format: physicochemical; conditions: for aggregation of the particles after 4 hours: pH 5, 37° C.
Description: The acid-sensitive pegoylated lipid used in this example is the compound D prepared in example 5, as well as its non-acid-sensitive analog called “Analog D” in the preceding example and in the text which follows.
as §1
The size of the particles is measured as a function of time.

[4] = tested on: Balb/C mice carrying subcutaneous M109 tumors; experiment: In vivo gene transfer of DNA/cationic lipid/DOPE complexes, CAT assay
Description: The cationic lipid of formula: [drawing 28] and the neutral lipid DOPE (obtained from Avanti Polar Lipids, Birmingham, Ala.) where it is dissolved in chloroform and then mixed in equimolar quantities.
Appropriate quantities of compound D were dissolved in chloroform and added to the mixture. The quantities of compound D used are given in mol % of the total quantity of lipid.
The organic solvent is then evaporated under an argon stream so that a thin lipid film forms at the bottom of the tube. This film is dried under vacuum for at least 1 hour and then rehydrated with a 20 mM HEPES buffer at pH 7.4 and 5% dextrose, at 4° C. for 2 hours. The lipid suspension thus obtained is heated at 50° C. for 30 minutes, and then sonicated for 5 minutes so as to form a homogeneous suspension of liposomes of about 100 nm.
The DNA used is plasmid DNA containing the CAT gene under the control of a CMV promoter.
Equivalent volumes of liposome suspension (in appropriate concentration) are rapidly added to a DNA solution while mixing rapidly and vigorously. Overall, 1 μg of DNA forms a complex with 5 nmol of cationic lipid. The complexes formed have a diameter of approximately 100 to 240 nm.
About 6 week old female Balb/C mice are used in all the experiments. Each mouse receives a subcutaneous injection with 10^6 M109 cells in the right flank. When the tumours reach a size of about 300 mm^3, the mice receive 200 μl of DNA/lipid complexes containing 50 μg of DNA, by intravenous injection. The tissues are removed 24 hours after injection and stored at −70° C. until used.
The tissues are homogenized using a “FastPrep Cell Disrupter FP120” apparatus (Bio 101/Savant). The samples are then centrifuged at 1 000 revolutions/minute for 5 minutes. The quantity of CAT transgene expressed is determined using a standard CAT ELISA procedure (Roche, Ind.).

Compound | variation in fluorescence over time (DNA not completely compacted) (DNA; pH 5, 37° C.) | transfection activity (HeLa cells) | effect of the presence of serum on transfection (HeLa cells) | colloidal stabilizing power [1] | sensitivity at acidic pH values [2] | stability at physiological pH [2] | also measured
CCCCCCCCCCCCCCCCCCN(CCCCCCCCCCCCCCCCCC)C(=O)CCCOC1OCC(CNC(=O)CNCCCNCCCCNCCCN)O1 (stereo not drawn) [Compound A Syn, 4-{4-[(2-{3-[4-(3-amino-propylamino)butylamino]propyl-amino}acetylamino)methyl]-[1,3]dioxolan-2-yloxy}-N,N-dioctadecylbutyramide tetraacetate] | no significant variation in fluorescence | high transfection activity | inhibition of transfection |  |  |  | release of the DNA over time (increase in fluorescence) (DNA; pH 5, 37° C., 1.7 and 6.0 nmol lipid/μg of DNA): release the DNA over time; time of release of DNA after the addition of acid (DNA; pH 5 and 37° C.): a few hours after the addition of acid
CCCCCCCCCCCCCCCCCCN(CCCCCCCCCCCCCCCCCC)C(=O)CNC(=O)CNCCCNCCCCNCCCN [control cationic lipid, H2N—(CH2)3—NH—(CH2)4—NH—(CH2)3—NH—CH2—CO-Gly-N[(CH2)17—CH3]2, reference compound] | no significant variation in fluorescence | high transfection activity | inhibition of transfection |  |  |  | 
methoxy-(polyethylene glycol 5000)-(N-(2-octadecyloxy-[1,3]dioxolan-4-ylmethyl)amide [Compound C] |  |  |  | comparable to that of the stable nonionic surfactants | high sensitivity at acidic pH values | relatively stable at physiological pH | duration of stabilization of the nucleolipid particles ([2]; pH 6, 37° C.): at least 4 hours
methoxy-(polyethylene glycol 5000)-N-(2-methyl-2-octadecyloxy-[1,3]dioxan-5-yl)amide [Compound E] |  |  |  |  | high sensitivity at acidic pH values | relatively stable at physiological pH | start of aggregation of the nucleolipid particles after the acidification ([2]; pH 6, 37° C.): about 1 hour
methoxy-(polyethylene glycol 5000)-N-{2-[17-(1,5-dimethylhexyl)-10,13-dimethyl-2,3,4,7,8,9,10,11,12,13,14,15,16,17-tetradecahydro-1H-cyclopenta[a]-phenanthren-3-yloxy]-[1,3]dioxolan-4-ylmethyl}amide [Compound D] |  |  |  | comparable to that of the stable nonionic surfactants |  |  | aggregation of the particles after 4 hours ([3]; pegoylated lipid/DNA ratio of 0.5): completely formed into aggregates; aggregation of the particles after 4 hours ([3]; pegoylated lipid/DNA ratio of 1): not at all or only slightly; colloidal stability of the particles at time t=0 ([3]; pH 5, t=0, regardless of the compound/DNA ratio): the same stability; increase of the gene transfer activity specific to the tumors relative to the lungs (factor) ([4]; M109 tumors versus lungs): 40; gene transfer in the tumors ([4]; M109 tumors, intravenous injection, 50 μg of DNA, 24 hours after injection, increasing quantity of pegoylated lipid): gene transfer does not appear to be affected in the tumors; transfection activity in the lungs ([4]; intravenous injection, 50 μg of DNA, tissues 24 hours after injection, increasing quantity of pegoylated lipid): the transfection activity is also inhibited in the lungs
